Entries after “also recorded” stand apart in the source; their conditions may differ.
What was measured:
[1] = target: T1, Nrf2-MAFG protein complex binding to fluorescein labeled ARE oligos (Homo sapiens, UniProt Q16236); experiment: Fluorescence polarization (FP) assay of DNA binding; format: biochemical; settings: increasing concentration of Nrf2 inhibitor
T1 construct: made in house
T1 sequence (Q16236 1-605): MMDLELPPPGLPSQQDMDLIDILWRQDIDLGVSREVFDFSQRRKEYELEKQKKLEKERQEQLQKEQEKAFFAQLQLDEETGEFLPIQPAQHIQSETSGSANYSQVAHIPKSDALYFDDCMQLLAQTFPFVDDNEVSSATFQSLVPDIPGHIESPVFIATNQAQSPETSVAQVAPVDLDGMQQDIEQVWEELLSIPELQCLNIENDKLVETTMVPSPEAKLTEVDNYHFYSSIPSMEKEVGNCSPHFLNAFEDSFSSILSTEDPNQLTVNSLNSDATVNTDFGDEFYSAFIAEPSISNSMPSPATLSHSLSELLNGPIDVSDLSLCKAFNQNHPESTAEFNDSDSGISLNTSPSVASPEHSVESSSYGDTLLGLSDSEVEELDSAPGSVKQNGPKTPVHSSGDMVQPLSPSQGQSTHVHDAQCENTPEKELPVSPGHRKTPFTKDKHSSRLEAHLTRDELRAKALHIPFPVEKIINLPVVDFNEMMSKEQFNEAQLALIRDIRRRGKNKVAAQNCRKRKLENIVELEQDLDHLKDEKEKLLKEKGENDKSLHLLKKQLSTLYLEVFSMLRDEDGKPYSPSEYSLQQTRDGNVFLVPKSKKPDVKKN
Experimental: To determine if the presently disclosed small molecule inhibitors were specifically interacting with Nrf2 or the Nrf2-MAF protein complex, a fluorescence polarization assay was developed. Ammonium aurintricarboxylate, a potent inhibitor of protein-nucleic acid interactions was used as positive control in the assay. The concentration of budesonide was 10 μM in the assay.
FP assay data showing inhibition of binding of Nrf2-MAFG protein complex to fluorescein labeled ARE oligos in the presence of compound 1 (FIG. 2), compound 4 (FIG. 3), and compound 3 (FIG. 4) are shown. Ammonium aurintricarboxylate (ATA-10 μM), a well-known inhibitor of DNA binding activity, was included as positive control. […] X-axis represents increasing concentration of Nrf2 inhibitor.
Briefly, fluorescein-labeled oligonucleotides corresponding to Anti-oxidant Response Element (ARE) were diluted to the appropriate concentration in PBS. Nrf2/MafG heterodimer was prepared by gel filtration with mixed samples of purified Nrf2 and MafG proteins. MafG/Nrf2 complex was then diluted with the buffer containing Nrf2 inhibitors or buffer only to the appropriate starting concentration and then serially diluted and incubated at 4° C. for 1 h. A mixture containing fluorescein-labeled ARE and purified protein sample was incubated at 4° C. for another 1 h. After pre-warming samples to 25° C. for 2 to 3 min, fluorescence anisotropy and total intensity was measured for each dilution using a FlexStation 3 (Molecular Devices, LLC) in Basic Binding Assay-FP mode. Ammonium aurintricarboxylate (ATA-10 μM), a well-known inhibitor of DNA binding activity, was included as positive control.

[2] = system: mRNA expression of Nrf2 and its downstream target genes, GCLm and NQO1, H1437 cells; experiment: Real time RT-PCR of Nrf2 and downstream target genes in H1437 cells; format: cell-based
Experimental: For the real time reverse transcription polymerase chain reaction (RT-PCR) assay, cells were treated with Nrf2 inhibitors for 36-48 hrs, followed by total RNA isolation. The mRNA expression of Nrf2 and its downstream target genes, GCLm and NQO1 was measured by RT-PCR. (NC means no significant change in gene expression in comparison with vehicle group; M represents the concentration of drug used in the gene expression studies and it is twice the IC50 values generated from primary screening with A549-ARE reporter cell lines).

H460 lung cancer cells = experiment: Clonogenic assay in H460 lung cancer cells; format: cell-based; settings: for Cytotoxicity of chemotherapeutic drugs in combination with the compound, clonogenic assay: H460 cells, combination with chemotherapeutic drug
Experimental: (§1) (A) H460, a NSCLC with a point mutation in KEAP1, is more sensitive to compound 4 than H460-KEAP1 Knock-in H460 cells expressing WT KEAP1. The cells were incubated with the inhibitor for 48 h. Colonies were stained with crystal violet staining and manually counted. (B-C) A549 and H460 cells were treated with different concentrations of paclitaxel, doxorubicin and carboplatin singly or in combination with compound 4 for 72 h. At the end of treatment, regular growth media was added and cells were further incubated for 8-10 days and stained with crystal violet. […] Cells treated with Chemo drug alone or a combination of compound 4 and chemo drug were incubated with luminogenic caspase substrate and change in luminescence was measured. Caspase activity was normalized to the number of viable cells using CellTiter-Blue assay.
For the clonogenic assays, 1,000 cells/well were plated in a 6-well plate. The next day, the cells were treated with vehicle (DMSO), Nrf2 inhibitor, a chemotherapeutic drug, or a combination of Nrf2 and chemotherapeutic drugs for 48 hrs. The drug containing media was then replaced with regular growth media and the cells were incubated for an additional 10 days. At the end of incubation period, the colonies were stained with Crystal Violet and imaged.

[3] = system: orthotopic lung tumor model; experiment: Orthotopic lung tumor model, NSCLC xenograft; format: in vivo, Mice; settings: three weeks post-treatment; single agent and combination with carboplatin
Experimental: A549 cells were injected in the flanks of athymic nude mice and once tumor volume reached 50-100 mm^3, treatment was initiated. Vehicle, carboplatin (5 mg/kg daily Monday to Friday), compound 4 (30 mg/kg daily Monday to Friday) or a combination of compound 4 and carboplatin was administered for three weeks. Values represent tumor volume ±s.e.m. for all groups (A). […] Tumors were excised and weight at the end of treatment period. […] For each group, pretreatment available lung volume was defined as 100% and compared with post-treatment lung volumes. Mice in the vehicle treated group died at 3 weeks;

[4] = system: orthotopic lung tumor model (large cell model); experiment: Orthotopic lung tumor model (large cell model); format: in vivo, Mice; settings: two weeks post-treatment; single agent and combination with carboplatin
Description: For each group, pretreatment available lung volume was defined as 100% and compared with post-treatment lung volumes.

[5] = system: Caspase 3/7 activity, H460 cells; experiment: Caspase 3/7 activity in H460 cells; format: cell-based; settings: combination of compound and chemo drug
Experimental: as §1

[6] = system: Ewing sarcoma cells (A4573); experiment: Soft agar colony assay in Ewing sarcoma cells; format: cell-based; settings: 72 h
Experimental: (A) Ewing sarcoma cells (A4573) cells were on soft agar and treated with doxorubicin (2 nM) singly or in combination with compound 4 (10 μM) for 72 h. At the end of treatment, regular growth media was added and cells were further incubated for 8-10 days and colonies were stained with crystal violet and counted. (B) Rhabdomyosarcoma cells (Rh30) cells were on soft agar and treated with doxorubicin (2 nM) and etoposide (5-nM) singly or in combination with compound 4 (10 μM) for 72 h. At the end of treatment, regular growth media was added and cells were further incubated for 8-10 days and colonies were stained with crystal violet and counted;

SMILES	Binding of Nrf2-MAFG protein complex to fluorescein labeled ARE oligos [1]	Nrf2 (and GCLm, NQO1) expression, real time PCR based validation [2]	Cytotoxicity of chemotherapeutic drugs in combination with the compound, clonogenic assay (H460 lung cancer cells)	Selective toxicity: H460 (KEAP1 point mutation) versus H460-KEAP1 Knock-in cells expressing WT KEAP1 (H460 lung cancer cells; 48 h, colonies counted)	Tumor free lung volume, orthotopic lung tumor model [3]	Tumor free lung volume, orthotopic lung tumor model [4]	Caspase 3/7 activity [5]	Colony growth of A4573 cells on soft agar, combination ([6]; 10 μM with doxorubicin (2 nM))	Colony growth of A4573 cells on soft agar, single agent ([6]; 10 μM)
O=C(Nc1ncc(Cc2ccc(C(F)(F)F)cc2)s1)c1ccc(-c2cccc([N+](=O)[O-])c2)o1 [Compound 1]	Dose dependent reduction in binding	–	–	–	–	–	–	–	–
CC1(C)CC2CC(C)(CN2S(=O)(=O)c2ccc(C(=O)Nc3ccc(Cl)c(S(=O)(=O)N4CCOCC4)c3)cc2)C1 (stereo not shown) [compound 3]	Dose dependent reduction in binding	inhibit Nrf2 expression	enhance the cytotoxicity of standard care chemotherapeutic drugs	–	–	–	–	–	–
Cc1ccccc1C(=O)N1CCc2cc(-c3nc(NC(=O)Cc4ccc5c(c4)OCO5)sc3C)ccc21 [compound 4]	Dose dependent reduction in binding	significant reduction in Nrf2, GCLm, and NQO1 expression	enhance the cytotoxicity of the chemotherapeutic drug paclitaxel; also recorded: potentiates the toxicity of standard care chemotherapy drugs	selectively toxic to cells with KEAP1 mutations	shows anti-tumor efficacy as a single agent and in combination with carboplatin	shows anti-tumor efficacy as a single agent and in combination with carboplatin	increased Caspase 3/7 activity	potentiates the cytotoxicity of standard care chemotherapy drugs	significant growth inhibitory activity as single agent

From US20160046616A1, “NRF2 SMALL MOLECULE INHIBITORS FOR CANCER THERAPY” (THE JOHNS HOPKINS UNIVERSITY, priority 2013, published 2016)
